Measured values reported in paper PMC5216056 (Nature Communications, 2017).
“And” between values parts separate entries of the source, which are not always exact repeats. Equal values may be shown once. Read-outs that look alike come from different tables or passages of the source.

What was measured:
[1] = target: T1, hCB1R (Homo sapiens, UniProt P21554); assay: cell-based; type: cell-based
T1 construct: host or cells: CHO

[2] = target: T1, hCB1R; assay: cell-based; type: cell-based; remark: listed apart in the source
[3] = target: T2, Rat recombinant TRPV2 (Rattus norvegicus, UniProt Q9WUD2); assay: cell-based; type: cell-based; conditions: for IC50: vs LPC 3μM, read-out: TRPV2 IC50 for antagonism or desensitization
T2 construct: expressed in transfected cells; host or cells: HEK293 (plasmid a gift from HB Bradshaw, Indiana University)
T2 sequence (Q9WUD2 1-761): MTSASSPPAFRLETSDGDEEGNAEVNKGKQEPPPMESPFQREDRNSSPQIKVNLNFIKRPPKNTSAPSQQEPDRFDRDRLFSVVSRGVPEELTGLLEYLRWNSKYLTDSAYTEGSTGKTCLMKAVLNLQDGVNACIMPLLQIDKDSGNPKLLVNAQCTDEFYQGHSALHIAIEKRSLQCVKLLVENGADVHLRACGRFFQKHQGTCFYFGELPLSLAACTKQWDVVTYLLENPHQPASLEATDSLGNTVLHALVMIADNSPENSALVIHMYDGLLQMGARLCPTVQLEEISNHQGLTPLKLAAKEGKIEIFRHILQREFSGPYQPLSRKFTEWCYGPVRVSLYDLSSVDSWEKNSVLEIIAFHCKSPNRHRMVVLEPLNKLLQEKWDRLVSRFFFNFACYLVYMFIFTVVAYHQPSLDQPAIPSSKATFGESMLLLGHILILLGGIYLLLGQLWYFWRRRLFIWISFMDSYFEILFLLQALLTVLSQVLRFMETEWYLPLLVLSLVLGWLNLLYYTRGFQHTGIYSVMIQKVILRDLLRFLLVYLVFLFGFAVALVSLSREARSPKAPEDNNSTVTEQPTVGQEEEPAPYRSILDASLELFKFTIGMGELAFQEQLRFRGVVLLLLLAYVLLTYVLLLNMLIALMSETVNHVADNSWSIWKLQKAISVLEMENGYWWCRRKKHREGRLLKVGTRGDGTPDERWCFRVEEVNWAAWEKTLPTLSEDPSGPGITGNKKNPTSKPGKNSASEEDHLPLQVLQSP

[4] = target: T3, Rat recombinant TRPM8 (Rattus norvegicus, UniProt Q8R455); assay: TRP channel [Ca2+]i assay; type: cell-based; conditions: read-out: TRPM8 IC50 for antagonism of icilin
T3 construct: expressed in transfected cells; host or cells: HEK293 (TRPM8-HEK-293, gift from Mario van der Stelt)

[5] = target: T4, alpha 2A (h) (Homo sapiens, UniProt P08913); assay: CEREP panel; type: binding; conditions: for % inhibition alpha 2A (h): 10 µM
T4 construct: CEREP
T4 sequence (P08913 1-465): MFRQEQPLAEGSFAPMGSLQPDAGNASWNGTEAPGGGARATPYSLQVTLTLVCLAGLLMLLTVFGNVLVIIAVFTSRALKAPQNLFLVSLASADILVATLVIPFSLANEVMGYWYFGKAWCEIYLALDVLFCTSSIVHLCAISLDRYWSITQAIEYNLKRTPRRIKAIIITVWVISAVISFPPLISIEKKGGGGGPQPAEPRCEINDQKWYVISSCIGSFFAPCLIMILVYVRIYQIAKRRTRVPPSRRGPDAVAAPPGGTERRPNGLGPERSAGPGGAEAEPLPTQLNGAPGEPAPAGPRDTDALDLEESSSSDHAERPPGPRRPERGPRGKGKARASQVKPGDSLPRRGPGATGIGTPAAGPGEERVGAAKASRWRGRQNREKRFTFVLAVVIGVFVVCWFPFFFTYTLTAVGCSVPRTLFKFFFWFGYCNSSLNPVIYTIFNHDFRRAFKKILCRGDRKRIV

[6] = target: T5, PPARgamma (h) (Homo sapiens, UniProt P37231); assay: CEREP panel; type: binding; conditions: for % inhibition PPARgamma (h): 10 µM
T5 construct: CEREP (contract assay)
T5 sequence (P37231 1-505): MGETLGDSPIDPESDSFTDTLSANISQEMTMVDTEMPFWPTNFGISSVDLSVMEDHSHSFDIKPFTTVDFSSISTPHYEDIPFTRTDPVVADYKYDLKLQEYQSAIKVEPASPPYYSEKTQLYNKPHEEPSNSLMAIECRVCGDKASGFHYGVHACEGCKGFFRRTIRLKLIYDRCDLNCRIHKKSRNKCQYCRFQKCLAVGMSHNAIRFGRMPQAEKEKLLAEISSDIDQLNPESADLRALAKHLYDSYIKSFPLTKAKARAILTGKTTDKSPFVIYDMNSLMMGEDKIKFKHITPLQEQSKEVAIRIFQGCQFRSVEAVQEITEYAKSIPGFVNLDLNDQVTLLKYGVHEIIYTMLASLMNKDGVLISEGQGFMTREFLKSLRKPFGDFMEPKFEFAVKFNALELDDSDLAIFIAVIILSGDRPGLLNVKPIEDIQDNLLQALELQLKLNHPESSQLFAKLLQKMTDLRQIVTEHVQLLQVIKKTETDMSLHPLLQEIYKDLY

[7] = target: T6, AT1 (h) (Homo sapiens, UniProt P30556); assay: CEREP panel; type: binding; conditions: for % inhibition AT1 (h): 10 µM
T6 construct: CEREP
T6 sequence (P30556 1-359): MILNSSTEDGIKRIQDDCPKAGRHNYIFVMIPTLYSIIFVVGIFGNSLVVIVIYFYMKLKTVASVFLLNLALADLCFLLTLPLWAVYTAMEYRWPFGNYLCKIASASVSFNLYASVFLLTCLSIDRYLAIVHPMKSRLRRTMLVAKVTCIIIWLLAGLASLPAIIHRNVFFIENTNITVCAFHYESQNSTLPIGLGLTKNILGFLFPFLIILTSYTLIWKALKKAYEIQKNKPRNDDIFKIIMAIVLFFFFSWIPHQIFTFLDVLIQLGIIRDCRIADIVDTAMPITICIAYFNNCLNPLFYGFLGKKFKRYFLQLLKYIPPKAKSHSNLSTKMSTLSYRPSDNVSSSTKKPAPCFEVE

[8] = tested on: Ca2+ channel (L, diltiazem site); assay: CEREP panel; type: binding; conditions: 10 µM
[9] = i.v., mice; for C0: 1.0-2.0 mg/kg, extrapolated
[10] = target: T7, MT3 (ML2) (Mesocricetus auratus, UniProt A0ABM2YAB8); assay: CEREP panel; type: binding
T7 construct: CEREP (contract assay)
T7 sequence (A0ABM2YAB8 1-231): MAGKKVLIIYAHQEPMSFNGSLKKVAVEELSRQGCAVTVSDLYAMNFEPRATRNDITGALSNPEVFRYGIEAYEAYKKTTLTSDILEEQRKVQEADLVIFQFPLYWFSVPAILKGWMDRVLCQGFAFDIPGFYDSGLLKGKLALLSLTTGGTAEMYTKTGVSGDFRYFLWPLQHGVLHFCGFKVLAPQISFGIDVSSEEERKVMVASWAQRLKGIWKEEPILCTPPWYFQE

T3 sequence (Q8R455 whole entry): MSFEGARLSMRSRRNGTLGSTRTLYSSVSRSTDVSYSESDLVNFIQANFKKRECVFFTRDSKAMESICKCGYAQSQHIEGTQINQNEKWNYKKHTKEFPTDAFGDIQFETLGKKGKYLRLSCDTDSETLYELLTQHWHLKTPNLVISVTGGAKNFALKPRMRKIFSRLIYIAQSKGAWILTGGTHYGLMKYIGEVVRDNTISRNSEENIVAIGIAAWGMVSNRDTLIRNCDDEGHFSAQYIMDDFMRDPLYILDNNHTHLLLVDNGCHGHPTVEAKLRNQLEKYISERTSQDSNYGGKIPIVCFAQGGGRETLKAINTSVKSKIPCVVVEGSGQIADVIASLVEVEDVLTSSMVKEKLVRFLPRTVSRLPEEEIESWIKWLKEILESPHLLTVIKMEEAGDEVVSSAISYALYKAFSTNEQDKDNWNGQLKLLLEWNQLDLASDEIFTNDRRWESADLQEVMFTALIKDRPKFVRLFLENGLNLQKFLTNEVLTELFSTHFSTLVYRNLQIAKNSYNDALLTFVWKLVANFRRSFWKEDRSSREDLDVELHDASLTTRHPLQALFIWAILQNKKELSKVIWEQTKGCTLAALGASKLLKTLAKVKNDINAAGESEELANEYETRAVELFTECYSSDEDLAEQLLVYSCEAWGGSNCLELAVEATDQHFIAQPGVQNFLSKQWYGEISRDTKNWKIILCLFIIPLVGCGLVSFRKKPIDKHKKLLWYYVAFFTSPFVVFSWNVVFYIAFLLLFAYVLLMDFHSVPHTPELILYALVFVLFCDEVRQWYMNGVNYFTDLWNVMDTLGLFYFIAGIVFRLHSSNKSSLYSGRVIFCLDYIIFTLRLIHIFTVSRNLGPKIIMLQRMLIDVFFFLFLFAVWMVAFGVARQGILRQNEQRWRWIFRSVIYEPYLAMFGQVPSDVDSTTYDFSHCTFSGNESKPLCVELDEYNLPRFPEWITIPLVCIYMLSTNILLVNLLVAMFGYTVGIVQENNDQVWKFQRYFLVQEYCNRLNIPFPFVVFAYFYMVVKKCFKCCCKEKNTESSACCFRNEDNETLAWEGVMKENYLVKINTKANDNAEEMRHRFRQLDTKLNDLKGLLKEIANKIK
T1 sequence (P21554 whole entry): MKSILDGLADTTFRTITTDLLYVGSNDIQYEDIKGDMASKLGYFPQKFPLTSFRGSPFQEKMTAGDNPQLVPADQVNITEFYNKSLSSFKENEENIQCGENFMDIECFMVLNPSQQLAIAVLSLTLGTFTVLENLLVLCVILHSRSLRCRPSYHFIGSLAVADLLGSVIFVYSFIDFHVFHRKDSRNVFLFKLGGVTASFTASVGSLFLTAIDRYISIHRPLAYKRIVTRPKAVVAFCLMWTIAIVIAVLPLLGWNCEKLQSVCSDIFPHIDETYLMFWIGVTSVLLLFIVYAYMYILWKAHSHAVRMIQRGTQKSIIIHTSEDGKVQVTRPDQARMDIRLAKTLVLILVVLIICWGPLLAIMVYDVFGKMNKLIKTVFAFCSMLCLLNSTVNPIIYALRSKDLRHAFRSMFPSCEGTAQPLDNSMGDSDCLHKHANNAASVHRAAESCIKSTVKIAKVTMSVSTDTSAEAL

Row | SMILES | Emax ± SEM β-AR recruitment hCB1R [1] | pEC50 ± SEM β-AR recruitment hCB1R [1] | pEC50 ± SEM GIRK hCB1R [2] | TRPV2 Efficacy (% ionomycin 4μM) [3] | IC50 [3] | IC50 ([4]; vs icilin […]) | % inhibition alpha 2A (h) [5] | % inhibition PPARgamma (h) [6] | % inhibition AT1 (h) [7] | AUCinf [9] | AUCinf/dose [9] | AUClast [9] | CL [9] | T1/2 [9] | C0 [9] | other results
1 | CN1CCCCC1Cn1cc(C(=O)c2cc([N+](=O)[O-])ccc2I)c2ccccc21 (racemic) [(rac)-AM1241] | 6 ± 5 | < 5 | < 5 |  |  |  |  |  |  |  |  |  |  |  |  | Emax ± SEM GIRK hCB1R [2]: 36 ± 4
2 | CCCCC/C=C\C/C=C\C/C=C\C/C=C\CCCC(=O)OC(CO)CO [2-AG, 2-arachidonoyl glycerol] |  |  |  |  |  |  |  |  |  |  |  |  |  |  |  | Emax ([2]; AtT20; read-out: Emax ± SEM GIRK hCB1R): 100 ± 11%
3 | CN1CCCC[C@@H]1Cn1cc(C(=O)c2cc([N+](=O)[O-])ccc2I)c2ccccc21 [(R)-AM1241] | 26 ± 2 | 5.59 ± 0.13 | 5.00 ± 0.1 | 14.5% | 35.5 µM | > 50 µM |  |  |  |  |  |  |  |  |  | EC50 ([3]; read-out: TRPV2 Potency EC50): 12 µM; Emax ± SEM GIRK hCB1R ([2]; normalized to CP55940): 51 ± 3%
4 | Cc1c(C(=O)NN2CCCCC2)nn(-c2ccc(Cl)cc2Cl)c1-c1ccc(I)cc1 [AM251] |  |  |  | < 10% |  |  | 30% | 55% | 36% |  |  |  |  |  |  | 
5 | COc1ccc(C(=O)c2c(C)n(CCN3CCOCC3)c3cc(I)ccc23)cc1 [AM630] |  |  |  | < 10% | 35.6 µM | 4.3 ± 0.3 µM | -5% | 99% | 17% | 197 ng·h/mL | 197 kg·ng·h/mL/mg | 177 ng·h/mL | 85 mL/min/kg | 2.9 h | 69.8 ng/mL | % inhibition Ca2+ channel (L, diltiazem site) [8]: -11%; IC50 ([4]; vs icilin 0.1μM (second value in cell)): 1.9 ± 0.1 µM
6 | CCCCCCC(C)(C)c1cc(OC)c([C@@H]2C=C(CO)[C@@H]3C[C@H]2C3(C)C)c(OC)c1 [HU308] |  |  |  | < 10% | > 100 µM |  |  |  |  |  |  |  |  |  |  | EC50 [1]: > 10 µM; Emax ([1]; read-out: Emax ± SEM β-AR recruitment hCB1R): 5 ± 1%; inhibition at 10 µM ([5]; read-out: % inhibition alpha 2A (h)): -6%; inhibition at 10 µM ([6]; read-out: % inhibition PPARgamma (h)): 14%; inhibition at 10 µM ([7]; read-out: % inhibition AT1 (h)): 53%; EC50 [2]: > 10 µM; Emax ([2]; AtT20, read-out: Emax ± SEM GIRK hCB1R): 15 ± 10%; IC50 ([4]; vs icilin 0.25μM): > 100 µM
7 | CCCCCCC(C)(C)c1cc(OC)c(C2=C[C@H]3CC[C@]2(CO)C3(C)C)c(OC)c1 [HU910] | -97 ± 4 | 5.31 ± 0.06 | < 5 | < 10% | > 100 µM | > 100 µM | 7% | 17% | 37% | 6060 ng·h/mL | 6060 kg·ng·h/mL/mg | 5960 ng·h/mL | 2.83 mL/min/kg | 7.4 h and 7 h | 55600 ng/mL | Emax ± SEM GIRK hCB1R ([2]; normalized to CP55940): 7 ± 5%
8 | CCCn1c(C)c(C(=O)c2cccc3ccccc23)c2ccccc21 [JWH015] |  |  |  |  |  |  | 1% | 67% | 21% | 174 ng·h/mL | 158 kg·ng·h/mL/mg | 163 ng·h/mL | 105 mL/min/kg | 2.6 h | 438 ng/mL | % inhibition Ca2+ channel (L, diltiazem site) [8]: 33%; % inhibition MT3 (ML2) ([10]; 10 µM): 49%
9 | CCCC(C)(C)c1ccc2c(c1)OC(C)(C)[C@@H]1CC=C(C)C[C@@H]21 [JWH133] | 40 ± 7 | 5.37 ± 0.05 | < 5 | < 10% | > 100 µM | 48.4 ± 3.5 µM | -18% | -5% | 7% | 1750 ng·h/mL | 1090 kg·ng·h/mL/mg | 1650 ng·h/mL | 15.3 mL/min/kg | 1.1 h and 1 h | 3870 ng/mL | Emax ± SEM GIRK hCB1R [2]: 5 ± 1; Vss [9]: 1.32 L/kg and 1 to 3 L/kg
10 | Cc1c(C(=O)NN2CCCCC2)nn(-c2ccc(Cl)cc2Cl)c1-c1ccc(Cl)cc1 [SR141716A] |  |  |  | < 10% | > 100 µM |  |  |  |  |  |  |  |  |  |  | inhibition at 10 µM ([10]; read-out: % inhibition MT3 (ML2)): 4%; IC50 ([4]; icilin concentration not given): 0.041 ± 0.0109 µM
